# Experimental data published in patent publication EP0266828B1, “Control of biofouling with certain alkylthioalkylamines” (THE DOW CHEMICAL COMPANY, priority 1986, dated 1988).
# Where two headings read alike, the source gives them in different places.
# How the values were obtained:
# Enterobacter aerogenes = assay: Minimum inhibitory concentration (MIC) procedure in agar at alkaline pH; type: cell-based; conditions: Klebsiella aerogenes; pH 8.2; 48 hours at 30°C; no high water hardness; unit ppm only from method
# Description: The agar (nutrient agar) was dispensed in 30 ml aliquots into 25 x 200 millimeter (mm) test tubes, capped and autoclaved for 15 minutes at 115°C. The test tubes containing the agar were cooled in a water bath until the temperature of the agar was 48°C and then an appropriate amount of the one percent solution of the test compound was added (except in the controls where no test compound was added) to the respective test tubes so that final concentrations of 500, 250, 100, 50, 25, 10, 5, 2.5, 1.0 and 0 parts per million (ppm) of the test compound in the agar were obtained. The afar solutions were each mixed and poured into individual petri plates so that each petri plate contained agar having a known concentration of test compound dispersed therein. After drying for 24 hours, the petri plates were inoculated with bacteria. The inoculation with bacteria was accomplished using the following procedure. Twenty-four hour cultures of the bacteria were prepared by incubating the bacteria in tubes containing nutrient broth for 24 hours at 30°C in a shaker. Dilutions of the 24 hour culture were made so that a suspension was made, containing about 10⁸ colony forming units (CFU) per ml of suspension of bacteria. Aliquots of 0.3 ml of the above suspension were used to fill individual wells of a Steer's Replicator. The Steer's Replicator was then used to inoculate the petri plates. The petri plates were incubated at 30°C for 48 hours and then read to determine if the test compound which was incorporated into the agar prevented growth of the respective bacteria. The minimum inhibitory concentration (MIC) for each bacteria was defined as the lowest concentration of the test compound which prevented growth of that bacteria. The MIC procedure substantially as described in Example 1 was performed. High water hardness was not evaluated in this study.
# [1] = tested on: Enterobacter aerogenes, ATCC #13048; assay: Kill time evaluation (concentration that kills all cells); type: cell-based; conditions: Klebsiella aerogenes, ATCC13048
# Description: Hard water was prepared by sterilizing deionized water and adjusted to 500 ppm hardness and 100 ppm alkalinity by addition of 16.7 ml of sterile CaCl₂·2H₂O (36.8 g/l), 16.7 ml of sterile MgSO₄·7H₂O (12 g/l), and 5 ml of sterile NaHCO₃ (16.8 g/l) to 1 liter of water. The pH was adjusted by addition of diluted NaOH or acetic acid.
# (§1) Nutrient broth containing 300 ppm total organic carbon (TOC) and 800 ppm total dissolved solids (TDS), was adjusted to pH 8.5 with NaOH and dispensed in 10 ml aliquots into 18 x 150 mm test tubes. These tubes were capped and autoclaved for 15 minutes at 121°C. Immediately before use, 50 microliters (µl) of a heat sterilized solution of 31.74 g/l MgCl₂ and 73.99 g/l CaCl₂ was added to tubes designated to contain 500 ppm hardness. The tubes with and without added hardness were readjusted to pH 8.5 by addition of appropriate amounts of a filter sterilized solution of 16.8 g/l NaHCO. One hundred and eighty and 125 µl of the NaHCO solution were added, respectively, to tubes with and without added hardness to achieve a pH of 8.5.
# (§2) Unless otherwise indicated, Enterobacter aerogenes, ATCC #13048, was used as the test organism. Three 0.1 ml aliquots of a 24 hour nutrient broth culture were pipetted onto three nutrient agar plates and spread uniformly with a Petri dish spreader. After 24 hours' growth, the cells were scraped and washed off the agar surface with sterile glass rods (hockey sticks) and sterile saline solution. After vigorous mixing (vortexing) to break up clumps, the cell suspension was filtered through a sterile filter (Whatman #4) to remove residual clumps. […] Solutions with this optical density, when diluted 1:100, contained approximately 10¹⁰ CFU/ml when plated on standard nutrient agar. The exact number of organisms was determined by making serial dilutions of the cell suspension and plating them on nutrient agar plates. Each of the serial dilution tubes was also streaked on a nutrient agar plate. These streaks of known concentrations of organisms were then used as controls to determine the number of organisms in the test samples.
# (§3) Just prior to the addition of the test compounds, 0.1 ml of the cell suspension containing approximately 10¹⁰ cells/ml was added to the prepared broth tubes. Solutions of 0.1 percent weight/weight (w/w) of experimental compound were prepared immediately before use. Appropriate amounts of these solutions were added to achieve final concentrations of 100, 50, 25, 10, 5 ppm of active ingredient in broth tubes both with and/or without hardness. The tubes were then incubated at 30°C. After three and/or 24 hours, dilutions of the broth tubes were made by addition of 0.1 ml of the broth into 9.9 ml of 0.85 percent saline containing 100 ppm NaHSO₃. From the saline tube the samples were streaked with cotton swabs onto nutrient agar plates which also contained 100 ppm NaHSO₃.
# (§4) The plates were incubated for 24 hours and then read. The number of organisms present in the broth tubes was determined by comparing these plates to the control plates of the serial dilution tubes.
# Dilute (1/10) nutrient broth was prepared according to standard methods known in the art and then adjusted to a variety of pH's by the addition of NaOH and HCl. The Kill Time Procedure substantially similar to that described in Example 2 was performed. High water hardness was not evaluated in this study.
# The Kill Time Evaluation substantially similar to that described in Example 2 was performed.
# Aspergillus niger = assay: Kill time procedure against fungus, malt yeast agar; type: cell-based; conditions: pH of 8.2 to 8.3, read-out: Ppm of Compound that Resulted in Kill of All Cells at Various Times
# Description: as §1, §2, §3, §4
# The kill time procedure substantially as described in Example 2 was performed using Aspergillus niger at a pH of 8.2 to 8.3. Malt yeast agar was used instead of nutrient agar and the incubation times were extended to accommodate the slower growing fungi cells.
# algae = assay: Cooling tower trial versus duplicate tower without biocide; conditions: 15 ppm added twice a week to recirculating water; pH of 8.5; hardness of 900 ppm; two week period
# Source text: In comparison, the tower without any added biocide became heavily fouled with algae in the same two week period of time.
# [2] = 3 hr, pH 8.5, hardness 500 ppm CaCo3, read-out: Ppm of the Compound that Kill all Cells
# [3] = 24 hr, pH 8.5, hardness 500 ppm CaCo3, read-out: Ppm of the Compound that Kill all Cells
SMILES,MIC (Enterobacter aerogenes),"MBC [1, 2]","MBC [1, 3]",further results
CCCCCCCCCCCCSCCN [n-dodecylthioethylamine],50 to 100 µg/mL,50 µg/mL,150 µg/mL,–
CCCCCCSCCN [n-hexylthioethylamine],250 to 500 µg/mL,500 µg/mL,250 µg/mL,–
CCCCCCCCCCCCCCSCCN [n-tetradecylthioethylamine],> 500 µg/mL,> 500 µg/mL,> 500 µg/mL,–
CCCCCCCCCCCSCCN [n-undecylthioethylamine],50 µg/mL,–,–,–

# Now those with a lower MIC (Enterobacter aerogenes), led by results:
MIC (Enterobacter aerogenes),SMILES,"MBC [1, 2]","MBC [1, 3]",further results
25 µg/mL,CCCCCCCCCSCCN [n-nonylthioethylamine],–,–,–
10 to 25 µg/mL,CCCCCCCCCCSCCN [n-decylthioethylamine],20 µg/mL,40 µg/mL,"MBC ([1]; pH 5, 3 hours, dilute (1/10) nutrient broth, no high water hardness, read-out: Concentration (ppm) of DTEA That Kills all Cells in 3 Hours): 50 µg/mL; MBC ([1]; pH 6, 3 hours, dilute (1/10) nutrient broth, no high water hardness, read-out: Concentration (ppm) of DTEA That Kills all Cells in 3 Hours): 50 µg/mL; MBC ([1]; pH 7, 3 hours, dilute (1/10) nutrient broth, no high water hardness, read-out: Concentration (ppm) of DTEA That Kills all Cells in 3 Hours): 20 µg/mL; MBC ([1]; pH 8, 3 hours, dilute (1/10) nutrient broth, no high water hardness, read-out: Concentration (ppm) of DTEA That Kills all Cells in 3 Hours): 10 µg/mL; MBC ([1]; pH 9, 3 hours, dilute (1/10) nutrient broth, no high water hardness, read-out: Concentration (ppm) of DTEA That Kills all Cells in 3 Hours): 5 µg/mL; MBC ([1]; pH 10, 3 hours, dilute (1/10) nutrient broth, no high water hardness, read-out: Concentration (ppm) of DTEA That Kills all Cells in 3 Hours): ≤ 5 µg/mL; MBC ([1]; pH 11, 3 hours, dilute (1/10) nutrient broth, no high water hardness, read-out: Concentration (ppm) of DTEA That Kills all Cells in 3 Hours): ≤ 5 µg/mL; MBC ([1]; pH 12, 3 hours, dilute (1/10) nutrient broth, no high water hardness, read-out: Concentration (ppm) of DTEA That Kills all Cells in 3 Hours): ≤ 5 µg/mL; MFC (Aspergillus niger; pH 8.2, 3 hr.): 3.5 µg/mL; MFC (Aspergillus niger; pH 8.2, 6 hr.): 0.5 to 3.5 µg/mL; MFC (Aspergillus niger; pH 8.2, 24 hr.): 0.1 µg/mL; growth of algae in the treated tower or basin (algae): prevent the growth of any algae"
25 µg/mL,CCCCCCCCSCCN [n-octylthioethylamine],150 µg/mL,75 µg/mL,"MFC (Aspergillus niger; pH 8.2, 3 hr.): 50 µg/mL; MFC (Aspergillus niger; pH 8.2, 6 hr.): 25 µg/mL; MFC (Aspergillus niger; pH 8.2, 24 hr.): 10 µg/mL"
